# pIC50: −log10 of the molar value.
# Tests used:
# Ba/F3 ERBB2 YVMA = Ba/F3 ERBB2 YVMA (Homo sapiens, UniProt P04626, DUP772-775, cells depend on it); assay: Cell viability assay (CellTiter Glo), Ba/F3 cells engineered to express ERBB2 YVMA; type: cell-based, mouse; conditions: Ba/F3 cells expressing human ERBB2 YVMA mutant, 72 hours, read-out: Ba/F3 ERBB2 YVMA, IC50
# Procedure: Cells were treated with compounds, and cell viability was measured as a metric of kinase inhibition.
# BT-474, A431, MDA-MB-175VII, NCI-H1781, MCF7, and Ba/F3 cell lines were tested. The Ba/F3 cell line is IL-3-dependent mouse cell line derived from the C3H mouse strain. Ba/F3 cell lines were engineered to express human ERBB2 or EGFR kinases, rendering the cells IL-3 independent. The lines were generated via retroviral transduction utilizing a Moloney murine leukemia virus (MMLV) promoter, and constructs are stably integrated into the cell genome. The sequences of the ERBB2 and EGFR genes used were NCBI Reference Sequences NM_004448.3 and NM_005228.3, respectively.
# BT-474, A431, MDA-MB-175VII, NCI-H1781 and MCF7 cells were grown in the appropriate growth medium as described in Table B2 below, and harvested at 50-80% confluence. BT-474, A431, MDA-MB-175VII, NCI-H1781 and MCF7 cells were counted and seeded at 2,000 or 1,500 cells per well in 384-well tissue culture plates (see Table B2). Similarly, Ba/F3 cell lines engineered to express EGFR, ERBB2, or ERBB2 mutants were grown, harvested, counted and seeded at 3000 cells per well in 96-well plates. A subset of wells contained media only (low control, “LC”).
# Table B1 provides the growth media and number of cells seeded per well for the each cell line.
# Compounds were dissolved in DMSO and serially diluted. Serially-diluted compound or a DMSO only control (high control, “HC”) was added to the plated cells in each well. Compounds were tested at concentrations of about 10 μM to 0.51 nM, using three-fold dilutions. The final proportion of DMSO never exceeded 0.1%.
# Plates were placed in a 37° C., 5% CO2 incubator for 72 hours. Plates were then removed from the incubator and equilibrated for 15 minutes at room temperature. 40 μl of CellTiter Glo reagent (Promega) was added to measure the relative level of metabolically active cells by quantifying intracellular ATP concentrations. Plates were incubated for 30 minutes at room temperature, and luminescence was measured. Percent viability was normalized to a vehicle control only using the following formula: % viability=100×(Lumsample−LumLC)/(LumHC−LumLC). Graphical curves were fitted using a nonlinear regression model with a sigmoidal dose response.
# [1] = molecular target: T1, phosphorylated ERBB2 (pERBB2) (Homo sapiens, UniProt P04626); assay: Detection of phosphorylated ERBB2 (pERBB2) by ELISA in BT-474 cells; type: cell-based; conditions: four hour incubation
# T1 construct: endogenous in cells; host or cells: BT-474
# T1 sequence (P04626 23-1255): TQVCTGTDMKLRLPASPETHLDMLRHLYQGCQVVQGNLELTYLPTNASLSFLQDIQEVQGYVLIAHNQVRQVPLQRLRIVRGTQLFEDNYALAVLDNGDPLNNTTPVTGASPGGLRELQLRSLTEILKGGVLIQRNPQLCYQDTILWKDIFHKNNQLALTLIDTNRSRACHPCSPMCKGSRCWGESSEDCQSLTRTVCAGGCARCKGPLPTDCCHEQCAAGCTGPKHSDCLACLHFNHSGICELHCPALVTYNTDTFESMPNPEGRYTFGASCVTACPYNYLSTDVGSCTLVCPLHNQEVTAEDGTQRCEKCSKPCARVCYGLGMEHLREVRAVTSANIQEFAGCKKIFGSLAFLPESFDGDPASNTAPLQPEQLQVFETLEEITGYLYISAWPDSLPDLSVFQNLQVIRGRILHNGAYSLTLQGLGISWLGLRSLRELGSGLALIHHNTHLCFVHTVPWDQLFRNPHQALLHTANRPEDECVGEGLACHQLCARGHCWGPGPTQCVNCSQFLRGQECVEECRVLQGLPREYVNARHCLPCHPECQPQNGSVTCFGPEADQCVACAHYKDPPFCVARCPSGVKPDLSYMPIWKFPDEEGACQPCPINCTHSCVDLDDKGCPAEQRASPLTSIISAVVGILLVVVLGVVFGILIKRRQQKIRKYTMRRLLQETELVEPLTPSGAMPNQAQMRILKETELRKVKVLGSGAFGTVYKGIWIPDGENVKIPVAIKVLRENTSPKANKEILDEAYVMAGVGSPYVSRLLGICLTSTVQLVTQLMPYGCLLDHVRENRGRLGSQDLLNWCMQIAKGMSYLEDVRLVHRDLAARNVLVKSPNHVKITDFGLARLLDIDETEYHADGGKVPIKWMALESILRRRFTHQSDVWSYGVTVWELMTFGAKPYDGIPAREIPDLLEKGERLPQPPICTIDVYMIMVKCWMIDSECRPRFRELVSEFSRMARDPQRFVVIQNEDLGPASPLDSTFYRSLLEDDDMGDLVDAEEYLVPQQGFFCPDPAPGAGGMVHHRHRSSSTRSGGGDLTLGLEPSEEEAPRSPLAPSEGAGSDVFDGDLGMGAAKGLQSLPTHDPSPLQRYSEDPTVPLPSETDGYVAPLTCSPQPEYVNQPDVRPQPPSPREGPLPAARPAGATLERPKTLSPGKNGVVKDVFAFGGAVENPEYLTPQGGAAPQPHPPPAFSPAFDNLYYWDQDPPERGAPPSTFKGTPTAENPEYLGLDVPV
# Summary of the method: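 BT-474 cells were treated with compounds (fourfold dilutions, 10 μM to 0.01 nM final) for 4 h at 37 °C, then lysed. pERBB2 in lysates was quantified by ELISA with an HRP anti-phosphotyrosine detection antibody and TMB read at 450 nm; % relative activity was normalized to no-cell and 0.1% DMSO controls.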
# [2] = molecular target: T2, phosphorylated EGFR (pEGFR) (Homo sapiens, UniProt P00533); assay: Detection of phosphorylated EGFR (pEGFR) by AlphaLISA in EGF-stimulated A431 cells; type: cell-based; conditions: A431 cells (10% FBS), 4 hours incubation, EGF 30 ng/mL for 10 minutes
# T2 construct: performed to measure phosphorylated EGFR levels using A431 cells (10% FBS); endogenous in cells; host or cells: A431
# T2 sequence (P00533 25-1210): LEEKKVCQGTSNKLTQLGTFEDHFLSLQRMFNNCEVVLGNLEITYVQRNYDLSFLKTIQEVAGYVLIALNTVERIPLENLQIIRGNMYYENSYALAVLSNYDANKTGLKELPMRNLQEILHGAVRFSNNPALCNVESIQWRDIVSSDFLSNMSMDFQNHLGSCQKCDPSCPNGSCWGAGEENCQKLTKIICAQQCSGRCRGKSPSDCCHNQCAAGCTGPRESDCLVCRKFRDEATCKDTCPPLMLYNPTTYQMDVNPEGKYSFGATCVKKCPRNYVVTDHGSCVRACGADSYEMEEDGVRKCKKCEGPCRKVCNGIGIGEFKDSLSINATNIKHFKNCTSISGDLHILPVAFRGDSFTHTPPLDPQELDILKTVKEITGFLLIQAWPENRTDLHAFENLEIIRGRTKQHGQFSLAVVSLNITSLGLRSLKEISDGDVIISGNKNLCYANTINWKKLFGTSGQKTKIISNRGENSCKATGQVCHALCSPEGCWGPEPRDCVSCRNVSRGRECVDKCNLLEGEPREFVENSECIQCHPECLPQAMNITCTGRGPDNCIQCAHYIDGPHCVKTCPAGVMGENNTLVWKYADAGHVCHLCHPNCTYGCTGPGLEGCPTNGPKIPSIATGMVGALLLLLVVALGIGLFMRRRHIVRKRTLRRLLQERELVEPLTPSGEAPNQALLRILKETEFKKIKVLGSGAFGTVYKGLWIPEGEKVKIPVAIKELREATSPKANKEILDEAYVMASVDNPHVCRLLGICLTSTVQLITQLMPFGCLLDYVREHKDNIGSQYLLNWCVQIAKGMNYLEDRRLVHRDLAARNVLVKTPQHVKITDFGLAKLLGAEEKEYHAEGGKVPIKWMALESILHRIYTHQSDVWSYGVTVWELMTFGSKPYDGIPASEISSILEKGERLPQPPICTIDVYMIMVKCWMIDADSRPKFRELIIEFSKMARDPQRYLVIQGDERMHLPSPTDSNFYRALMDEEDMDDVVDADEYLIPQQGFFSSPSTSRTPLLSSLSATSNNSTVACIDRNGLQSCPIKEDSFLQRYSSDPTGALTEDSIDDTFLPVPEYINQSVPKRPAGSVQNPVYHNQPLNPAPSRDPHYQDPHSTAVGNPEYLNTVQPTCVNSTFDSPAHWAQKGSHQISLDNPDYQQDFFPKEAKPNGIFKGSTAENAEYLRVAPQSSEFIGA
# Summary of the method: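 pEGFR was quantified by AlphaLISA in lysates of A431 cells (10% FBS) given a 10 min pulse of EGF at 30 ng/mL after 4 h compound exposure at 37 °C. IC50 came from a four-parameter fit of % inhibition between DMSO and staurosporine controls.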
# Ba/F3 ERBB2 YVMA, sequence (P04626 with tags, fused parts or gaps DUP772-775): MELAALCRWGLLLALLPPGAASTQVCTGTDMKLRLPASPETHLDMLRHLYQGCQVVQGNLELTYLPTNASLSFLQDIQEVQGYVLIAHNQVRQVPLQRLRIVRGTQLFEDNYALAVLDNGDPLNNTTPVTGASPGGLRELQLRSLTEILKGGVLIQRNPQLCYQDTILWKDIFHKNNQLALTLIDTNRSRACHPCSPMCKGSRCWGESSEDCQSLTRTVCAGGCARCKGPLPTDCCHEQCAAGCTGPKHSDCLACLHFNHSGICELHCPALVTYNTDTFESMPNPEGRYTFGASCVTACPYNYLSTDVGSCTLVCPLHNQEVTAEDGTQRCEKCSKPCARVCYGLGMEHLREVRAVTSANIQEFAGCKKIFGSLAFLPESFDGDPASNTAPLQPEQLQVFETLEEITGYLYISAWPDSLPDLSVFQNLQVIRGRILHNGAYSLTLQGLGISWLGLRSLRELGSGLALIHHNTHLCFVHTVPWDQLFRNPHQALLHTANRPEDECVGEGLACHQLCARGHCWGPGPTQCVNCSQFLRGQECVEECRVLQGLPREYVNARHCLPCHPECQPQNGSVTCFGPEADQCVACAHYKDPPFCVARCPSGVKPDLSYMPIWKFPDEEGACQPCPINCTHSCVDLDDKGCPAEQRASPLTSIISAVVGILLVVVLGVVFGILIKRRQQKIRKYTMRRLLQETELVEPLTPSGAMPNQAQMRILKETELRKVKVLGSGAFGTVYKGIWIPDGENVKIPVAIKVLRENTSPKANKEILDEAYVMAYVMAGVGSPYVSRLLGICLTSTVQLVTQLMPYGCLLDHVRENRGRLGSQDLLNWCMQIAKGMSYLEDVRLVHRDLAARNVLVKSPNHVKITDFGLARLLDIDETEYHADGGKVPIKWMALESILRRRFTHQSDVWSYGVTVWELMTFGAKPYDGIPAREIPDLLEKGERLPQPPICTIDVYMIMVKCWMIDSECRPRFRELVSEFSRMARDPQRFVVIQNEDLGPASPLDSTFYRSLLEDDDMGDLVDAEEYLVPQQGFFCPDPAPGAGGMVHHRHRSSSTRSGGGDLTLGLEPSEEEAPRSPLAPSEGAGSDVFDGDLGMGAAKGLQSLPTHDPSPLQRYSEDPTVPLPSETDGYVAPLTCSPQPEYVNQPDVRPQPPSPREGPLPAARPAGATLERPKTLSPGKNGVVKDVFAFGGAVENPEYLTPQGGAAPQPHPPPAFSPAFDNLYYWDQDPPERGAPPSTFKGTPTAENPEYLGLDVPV
pIC50 [1],pIC50 [2],SMILES,GI50 (Ba/F3 ERBB2 YVMA)
7.20,< 5.00,"Cc1cc(Nc2ncnc3ccc4c(c23)O[C@@H]2CCN(C)C[C@H]2N4C)ccc1Oc1ccc2c(c1)ncn2C (relative stereo) [Compound 124, trans-7,9-dimethyl-N-(3-methyl-4-((1-methyl-1H-benzo[d]imidazol-5-yl)oxy)phenyl)-7a,8,9,10,11,11a-hexahydro-7H-pyrido[3′,4′:5,6][1,4]oxazino[2,3-f]quinazolin-1-amine]",93.7 nM
7.21,< 5.00,"Cc1cc(Nc2ncnc3ccc4c(c23)O[C@H]2CCN(C)C[C@@H]2N4)ccc1Oc1ccc2c(c1)ncn2C (relative stereo) [Compound 126, trans-9-methyl-N-(3-methyl-4-((1-methyl-1H-benzo[d]imidazol-5-yl)oxy)phenyl)-7a,8,9,10,11,11a-hexahydro-7H-pyrido[3′,4′:5,6][1,4]oxazino[2,3-f]quinazolin-1-amine]",140 nM
8.24,7.07,"C=CC(=O)N1CCN2c3nc4c(Nc5ccc(Oc6ccn7ncnc7c6)c(C)c5)ncnc4cc3OC[C@@H]2C1 [Compound 1, (S)-1-(11-((4-([1,2,4]triazolo[1,5-a]pyridin-7-yloxy)-3-methylphenyl)amino)-1,2,4a,5-tetrahydropyrazino[1,2-d]pyrimido[4′,5′:5,6]pyrido[3,2-b][1,4]oxazin-3(4H)-yl)prop-2-en-1-one]",1.6 nM
7.12,< 5.00,"Cc1cc(Nc2ncnc3ccc4c(c23)OC[C@H]2CCCN42)ccc1Oc1ccn2ncnc2c1 [Compound 87, (R)—N-(4-([1,2,4]triazolo[1,5-a]pyridin-7-yloxy)-3-methylphenyl)-6a,7,8,9-tetrahydro-6H-pyrrolo[1′,2′:4,5][1,4]oxazino[2,3-f]quinazolin-4-amine]",
6.68,< 5.00,"Cc1c(Oc2ccn3ncnc3c2)ccc(Nc2ncnc3ccc4c(c23)OC[C@H]2COCCN42)c1F [Compound 99, (R)—N-(4-([1,2,4]triazolo[1,5-a]pyridin-7-yloxy)-2-fluoro-3-methylphenyl)-6a,7,9,10-tetrahydro-6H-[1,4]oxazino[4′,3′:4,5][1,4]oxazino[2,3-f]quinazolin-4-amine]",
7.09,< 5.00,"Cc1cc(Nc2ncnc3ccc4c(c23)OC[C@H]2COCCN42)c(F)cc1Oc1ccn2ncnc2c1 [Compound 100, (R)—N-(4-([1,2,4]triazolo[1,5-a]pyridin-7-yloxy)-2-fluoro-5-methylphenyl)-6a,7,9,10-tetrahydro-6H-[1,4]oxazino[4′,3′:4,5][1,4]oxazino[2,3-f]quinazolin-4-amine]",
6.30,< 5.00,"Fc1cc(Oc2ccn3ncnc3c2)ccc1Nc1ncnc2ccc3c(c12)OC[C@H]1COCCN31 [Compound 101, (R)—N-(4-([1,2,4]triazolo[1,5-a]pyridin-7-yloxy)-2-fluorophenyl)-6a,7,9,10-tetrahydro-6H-[1,4]oxazino[4′,3′:4,5][1,4]oxazino[2,3-f]quinazolin-4-amine]",
6.59,< 5.00,"Cc1c(Oc2ccn3ncnc3c2)ccc(Nc2ncnc3cc4c(nc23)N2CCOC[C@H]2CO4)c1F [Compound 102, (S)—N-(4-([1,2,4]triazolo[1,5-a]pyridin-7-yloxy)-2-fluoro-3-methylphenyl)-1,2,4a,5-tetrahydro-4H-[1,4]oxazino[4,3-d]pyrimido[4′,5′:5,6]pyrido[3,2-b][1,4]oxazin-11-amine]",
6.81,< 5.00,"Cc1cc(Nc2ncnc3cc4c(nc23)N2CCOC[C@H]2CO4)c(F)cc1Oc1ccn2ncnc2c1 [Compound 103, (S)—N-(4-([1,2,4]triazolo[1,5-a]pyridin-7-yloxy)-2-fluoro-5-methylphenyl)-1,2,4a,5-tetrahydro-4H-[1,4]oxazino[4,3-d]pyrimido[4′,5′:5,6]pyrido[3,2-b][1,4]oxazin-11-amine]",
6.31,< 5.00,"Fc1cc(Oc2ccn3ncnc3c2)ccc1Nc1ncnc2cc3c(nc12)N1CCOC[C@H]1CO3 [Compound 104, (S)—N-(4-([1,2,4]triazolo[1,5-a]pyridin-7-yloxy)-2-fluorophenyl)-1,2,4a,5-tetrahydro-4H-[1,4]oxazino[4,3-d]pyrimido[4′,5′:5,6]pyrido[3,2-b][1,4]oxazin-11-amine]",
6.65,< 5.00,"Cc1cc(Nc2ncnc3cc4c(c(F)c23)N2CCOC[C@H]2CO4)ccc1Oc1ccn2ncnc2c1 [Compound 105, (S)—N-(4-([1,2,4]triazolo[1,5-a]pyridin-7-yloxy)-3-methylphenyl)-12-fluoro-1,2,4a,5-tetrahydro-4H-[1,4]oxazino[4′,3′:4,5][1,4]oxazino[3,2-g]quinazolin-11-amine]",
7.43,< 5.00,"Cc1cc(Nc2ncnc3cnc4c(c23)OC[C@H]2COCCN42)ccc1Oc1ccn2ncnc2c1 [Compound 106, (R)—N-(4-([1,2,4]triazolo[1,5-a]pyridin-7-yloxy)-3-methylphenyl)-6a,7,9,10-tetrahydro-6H-[1,4]oxazino[4,3-d]pyrimido[5′,4′:4,5]pyrido[3,2-b][1,4]oxazin-4-amine]",
7.11,< 5.00,"Cc1cc(Nc2ncnc3cc4c(nc23)N2CCOC[C@H]2CO4)ccc1Oc1ccc2c(c1)ncn2C [Compound 107, (S)—N-(3-methyl-4-((1-methyl-1H-benzo[d]imidazol-5-yl)oxy)phenyl)-1,2,4a,5-tetrahydro-4H-[1,4]oxazino[4,3-d]pyrimido[4′,5′:5,6]pyrido[3,2-b][1,4]oxazin-11-amine]",
7.24,5.02,"Cc1cc(Nc2ncnc3ccc4c(c23)OC[C@H]2COCCN42)ccc1Oc1ccc2c(c1)ncn2C [Compound 108, (R)—N-(3-methyl-4-((1-methyl-1H-benzo[d]imidazol-5-yl)oxy)phenyl)-6a,7,9,10-tetrahydro-6H-[1,4]oxazino[4′,3′:4,5][1,4]oxazino[2,3-f]quinazolin-4-amine]",
7.13,< 5.00,"COC(=O)N1CCN2c3ccc4ncnc(Nc5ccc(Oc6ccn7ncnc7c6)c(C)c5)c4c3OC[C@H]2C1 [Compound 110, methyl (R)-4-((4-([1,2,4]triazolo[1,5-a]pyridin-7-yloxy)-3-methylphenyl)amino)-6a,7,9,10-tetrahydropyrazino[1′,2′:4,5][1,4]oxazino[2,3-f]quinazoline-8(6H)-carboxylate]",
7.34,< 5.00,"COCCN1CCN2c3ccc4ncnc(Nc5ccc(Oc6ccn7ncnc7c6)c(C)c5)c4c3OC[C@H]2C1 [Compound 111, (R)—N-(4-([1,2,4]triazolo[1,5-a]pyridin-7-yloxy)-3-methylphenyl)-8-(2-methoxyethyl)-6,6a,7,8,9,10-hexahydropyrazino[1′,2′:4,5][1,4]oxazino[2,3-f]quinazolin-4-amine]",
,< 5.00,"Cc1cc(Nc2ncnc3ccc4c(c23)O[C@@H]2CCN(C)C[C@@H]2N4C)ccc1Oc1ccc2c(c1)ncn2C [Compound 123, (7aS,11aR)-7,9-dimethyl-N-(3-methyl-4-((1-methyl-1H-benzo[d]imidazol-5-yl)oxy)phenyl)-7a,8,9,10,11,11a-hexahydro-7H-pyrido[3′,4′:5,6][1,4]oxazino[2,3-f]quinazolin-1-amine]",46.4 nM
,< 5.00,"Cc1cc(Nc2ncnc3ccc4c(c23)O[C@@H]2CCN(C)C[C@@H]2N4C)ccc1Oc1ccc2c(c1)ncn2C [Compound 129, (7aS,11aR)-7,9-dimethyl-N-(3-methyl-4-((1-methyl-1H-benzo[d]imidazol-5-yl)oxy)phenyl)-7a,8,9,10,11,11a-hexahydro-7H-pyrido[3′,4′:5,6][1,4]oxazino[2,3-f]quinazolin-1-amine]",111 nM

# Source: patent publication US20260078135A1, “POLYCYCLIC QUINAZOLINES FOR INHIBITION OF ERBB2” (Enliven Inc., priority 2022, published 2026)
